Tested on: T. gondii tachyzoites
Test: Immunofluorescence confocal microscopy of T. gondii tachyzoites with serum of mice immunized with the compound 4-CRM197 conjugate
Format: binding, Toxoplasma gondii
Conditions: paraformaldehyde-fixed tachyzoites, pooled serum from immunized mice, FIG. 13
Experimental: Full circle in (C) indicates the apical and half circle the basolateral end of the parasite (white bar=5 μm).
Extracellular tachyzoites collected from cell culture supernatants were fixed with 4% (w/v) paraformaldehyde in PBS for 30 min. Cells were washed three times with PBS, and incubated for 1 h with mice sera raised against compounds 3 or 4 diluted to 100 in PBS, 10% BSA. Cells were washed three times with PBS before incubated for 1 h with secondary FITC-conjugated anti-mouse immunoglobulin antibody (DakoCytomation, Glostrup) containing 10% BSA and washed finally three times with PBS. After three final washes with PBS, aliquot were spotted on microscope slides followed by a glass cover slides, mounted in Fluoroprep (Dako) and recorded by using a 100× Plan-NeoFluar oil objective lens with NA 1.30 using an Axiophot microscop (Zeiss).
In contrast, antibodies binding to the parasite in sera of mice before immunization could not be detected. […] Tachyzoites secrete factors for attachment, invasion and formation of the parasitophorous vacuole, which is surrounding and protecting the parasite inside the host cell from endocytosis, in a regulated fashion from the apical region. […]

6-O-(aminoethyl phosphono)-α-D-mannopyranosyl-(1→2)-α-D-mannopyranosyl-(1→6)-4-O-(α-D-glucopyranosyl-(1→4)-2-deoxy-2-acetamido-β-D-galactopyranosyl)-α-D-manno-pyranosyl-(1→4)-2-amino-2-deoxy-α-D-glucopyranosyl-(1→6)-1-O-(thiohexyl phosphono)-D-myo-inositol [compound 4]
recognition of the natural GPI antigen on the T. gondii parasite by antibodies raised against the substance: bound to the surface of the parasite

Reference: US9802974B2, “Synthesis of diverse glycosylphosphatidylinositol glycans from Toxoplasma gondii and their application as vaccines and diagnostics” (Max-Planck-Gesellschaft zur Förderung der Wissenschaften …, priority 2012, dated 2017)
